Assay results taken from US7875587B2, “Peptide analogues of GIP for treatment of diabetes, insulin resistance and obesity” (UUTECH Limited, priority 2004, dated 2011).
Blank lines part the entries; values can stand above or below the compound they belong to. No end group written: not given here.

Assays:
[1] = Degradation of GIP and analogues by human plasma (HPLC); type: in vitro ADME
Method: Degradation of GIP and Tyr^1-glucitol GIP by human plasma. […] […] The reactions were terminated by addition of 5 μl of TFA and the final volume adjusted to 1.0 ml using 0.1% v/v TFA/water. Samples were centrifuged (13,000 g, 5 minutes) and the supernatant applied to a C-18 Sep-Pak cartridge (Millipore-Waters) which was previously primed and washed with 0.1% (v/v) TFA/water. […] The volume was adjusted to 1.0 ml with 0.12% (v/v) TFA/water prior to HPLC purification.
HPLC analysis of degraded GIP and Tyr^1-glucitol GIP. […] Using 0.1% (v/v) TFA in 70% acetonitrile/H20, the concentration of acetonitrile in the eluting solvent was raised from 0% to 31.5% over 15 min, to 38.5% over 30 minutes and from 38.5% to 70% over 5 minutes, using linear gradients. The absorbance was monitored at 206 nm and peak areas evaluated using a model 2221 LKB integrator. Samples recovered manually were concentrated using a Speed-Vac concentrator.
Electrospray ionization-mass spectrometry (ESI-MS) was carried out as described in Example 2. Degradation of GIP and novel GIP analogues by DPP IV and human plasma was carried out as described in Example 2.

DPP IV = target: T1, DPP IV (Sus scrofa, UniProt P22411); assay: DPP IV degradation studies of fatty acid derivatised GIP analogues; type: in vitro ADME, porcine; conditions: pig, isolated enzyme dpp iv, pH 7.8, incubation with DPP IV, read-out: % Intact peptide remaining after time (hours)
T1 construct: purchased Sigma (Poole, Dorset, UK)
Method: DPP IV degradation studies. GIP and fatty acid derivatised GIP analogues were incubated at 37° C. with purified porcine dipeptidylpeptidase IV (5 mU in 50 mmol/l triethanolamine-HCl; pH 7.8) for 0, 2, 4, 8 and 24 hours (final peptide concentration 2 mmol/l). The reactions were subsequently terminated by addition of 10% (v/v) TFA/water and the reaction products separated using HPLC. […] HPLC peak area data were used to calculate % intact peptide remaining throughout the incubation.

[2] = tested on: obese diabetic ob/ob mice; assay: Chronic (11 days, s.c.) (Pro3)GIP administration in obese diabetic ob/ob mice; type: in vivo, mouse
Method: Effects of chronic (Pro^3)GIP administration on plasma glucose, insulin and glycated HbA1c in obese diabetic ob/ob mice and normal mice. Obese diabetic ob/ob mice and normal control mice aged 8-12 weeks were randomly divided into groups which received once daily subcutaneous injections (17:00 h) of either saline (0.9% w/v NaCl) or (Pro^3)GIP (25 nmol/kg body weight in saline). After 11 days, treatment was ceased. Food intake and body weight were recorded daily. Blood samples were collected from the cut tip of the tail of conscious mice into chilled fluoride/heparin coated glucose microcentrifuge tubes (Sarstedt, Numbrecht, Germany). Blood samples were immediately centrifuged using a Beckman microcentrifuge (Beckman Instruments, UK) for 30 seconds at 13000 g prior to glucose, insulin and HbA1c determinations.
Effects of chronic treatment with (Pro^3)GIP on glucose tolerance in ob/ob mice and normal mice. Plasma glucose and insulin concentrations were measured following intraperitoneal administration of glucose (18 mmol/kg body weight) in ob/ob and normal mice treated with either saline (0.9% w/v NaCl) or (Pro^3)GIP (25 nmol/kg body weight/day) for 11 days. This test was repeated 9 days after cessation of chronic (Pro^3)GIP treatment. Blood samples were collected from the cut tip of the tail of conscious mice into chilled fluoride/heparin microcentrifuge tubes (Sarstedt, Numbrecht, Germany) immediately prior to injection and at 15, 30 and 60 minutes post injection. Blood samples were immediately centrifuged using a Beckman microcentrifuge (Beckman Instruments, UK) for 30 seconds at 13000 g and stored at −20° prior to glucose and insulin determinations.
Effects of chronic treatment with (Pro^3)GIP on the glucose lowering effects of exogenous insulin in ob/ob mice. The glucose lowering effects of insulin were evaluated by measuring plasma glucose response in 11-day saline (0.9% w/v NaCl) and (Pro^3)GIP (25 nmol/kg body weight/day) treated ob/ob mice following acute intraperitoneal administration of insulin (50 U/kg bodyweight). Blood samples were collected from the cut tip of the tail of conscious mice into chilled fluoride/heparin microcentrifuge tubes (Sarstedt, Numbrecht, Germany) immediately prior to injection and at 30 and 60 minutes post injection. Blood samples were immediately centrifuged using a Beckman microcentrifuge (Beckman Instruments, UK) for 30 seconds at 13000 g and stored at −20° prior to glucose determination.
Effects of chronic treatment with (Pro^3)GIP on pancreatic insulin content and associated islet hypertrophy in ob/ob mice. Pancreatic tissue was excised from non-fasted ob/ob mice after 11 days treatment with either saline (0.9% w/v NaCl) or (Pro^3)GIP (25 nmol/kg body weight/day). Pancreatic samples were individually wrapped in aluminium foil and snap frozen in liquid nitrogen. Individual excised pancreatic samples were then either embedded, sectioned and immunohistochemically stained for insulin or permeabilised for determination of pancreatic insulin content.
Determination of HbA1c, plasma glucose and insulin concentrations. HbA1c was measured in whole blood by ion-exchange high-performance liquid chromatography using the Menari HA-8140 kit (BIOMEN, Berkshire, UK). Plasma glucose was assayed by an automated glucose oxidase procedure using a Beckman Glucose Analyzer II (Stevens, J. F., 1971, Clinica Chemica Acta 32:199-201) and plasma insulin was determined by RIA (Flatt, P. R. et al., 1981, Diabetologia 20:573-577). Incremental areas under plasma glucose and insulin curves (AUC) were calculated using a computer generated program (CAREA) employing the trapezoidal rule (Burington, R. S., 1973, Handbook of Mathematical Tables and Formulae, New York, McGraw Hill) with baseline subtraction.

BRIN-BD11 cells = assay: GIP-stimulated insulin release from BRIN-BD11 cells (antagonism); type: cell-based; conditions: 5.6 mM glucose, native GIP 10^-7 M
Method: Tissue culture. […] Cells were maintained in sterile tissue culture flasks (Corning Glass Works, Sunderland, UK) at 37° C. in an atmosphere of 5% CO2 and 95% air using an LEEC incubator (Laboratory Technical Engineering, Nottingham, UK). Acute studies of insulin release. Insulin release from BRIN-BD11 cells was determined using cell monolayers ([…]. et al., 1996, Diabetes 45:1132-1140). Cells were harvested with the aid of trypsin/EDTA (Gibco), seeded into 24-multiwell plates (Nunc, Roskilde, Denmark) at a density of 1.0×10^5 cells per well, and allowed to attach overnight at 37° C.

[3] = human, plasma, pH 7.8, % Intact peptide remaining after incubations with human plasma
[4] = 25 nmol/kg/day s.c., 11 days, vs saline

T1 sequence (P22411 whole entry): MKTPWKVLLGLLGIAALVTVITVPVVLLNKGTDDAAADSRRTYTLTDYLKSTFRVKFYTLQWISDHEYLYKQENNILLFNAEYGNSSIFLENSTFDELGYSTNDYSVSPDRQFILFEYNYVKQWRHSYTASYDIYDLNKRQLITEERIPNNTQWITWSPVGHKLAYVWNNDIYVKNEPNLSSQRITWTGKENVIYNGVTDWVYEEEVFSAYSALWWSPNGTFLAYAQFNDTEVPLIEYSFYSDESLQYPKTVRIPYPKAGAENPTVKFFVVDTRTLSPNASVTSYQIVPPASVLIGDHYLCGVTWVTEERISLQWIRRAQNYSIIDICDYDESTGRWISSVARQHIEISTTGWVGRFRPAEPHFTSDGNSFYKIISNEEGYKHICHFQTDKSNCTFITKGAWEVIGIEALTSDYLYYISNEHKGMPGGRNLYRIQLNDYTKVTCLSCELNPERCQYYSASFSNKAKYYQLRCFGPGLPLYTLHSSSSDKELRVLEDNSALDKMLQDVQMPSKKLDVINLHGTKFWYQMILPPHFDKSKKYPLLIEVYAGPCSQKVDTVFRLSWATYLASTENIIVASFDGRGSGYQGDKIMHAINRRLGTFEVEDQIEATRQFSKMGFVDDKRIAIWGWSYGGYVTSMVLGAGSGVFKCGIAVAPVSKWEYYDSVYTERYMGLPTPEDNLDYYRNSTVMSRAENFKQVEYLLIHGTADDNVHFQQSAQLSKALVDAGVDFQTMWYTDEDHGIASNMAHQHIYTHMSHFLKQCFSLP

degradation by human plasma [1]: readily metabolised
plasma degradation [1]: rapidly degraded
% Intact peptide remaining after incubations with human plasma ([1]; human, plasma, 0 h): 100%
remaining at 2 h, 20 µg/ml [1, 3]: 52 ± 1%
remaining at 4 h, 20 µg/ml [1, 3]: 23 ± 1%
remaining at 8 h, 20 µg/ml [1, 3]: 0%
Compound: CC[C@H](C)[C@H](NC(=O)[C@H](CO)NC(=O)[C@H](Cc1ccc(O)cc1)NC(=O)[C@H](CC(=O)O)NC(=O)[C@H](CO)NC(=O)[C@@H](NC(=O)[C@H](Cc1ccccc1)NC(=O)[C@@H](NC(=O)CNC(=O)[C@H](CCC(=O)O)NC(=O)[C@H](C)NC(=O)[C@@H](N)Cc1ccc(O)cc1)[C@@H](C)O)[C@@H](C)CC)C(=O)N[C@@H](C)C(=O)N[C@@H](CCSC)C(=O)N[C@@H](CC(=O)O)C(=O)N[C@@H](CCCCN)C(=O)N[C@H](C(=O)N[C@@H](Cc1c[nH]cn1)C(=O)N[C@@H](CCC(N)=O)C(=O)N[C@@H](CCC(N)=O)C(=O)N[C@@H](CC(=O)O)C(=O)N[C@@H](Cc1ccccc1)C(=O)N[C@H](C(=O)N[C@@H](CC(N)=O)C(=O)N[C@@H](Cc1c[nH]c2ccccc12)C(=O)N[C@@H](CC(C)C)C(=O)N[C@@H](CC(C)C)C(=O)N[C@@H](C)C(=O)N[C@@H](CCC(N)=O)C(=O)N[C@@H](CCCCN)C(=O)NCC(=O)N[C@@H](CCCCN)C(=O)N[C@@H](CCCCN)C(=O)N[C@@H](CC(N)=O)C(=O)N[C@@H](CC(=O)O)C(=O)N[C@@H](Cc1c[nH]c2ccccc12)C(=O)N[C@@H](CCCCN)C(=O)N[C@@H](Cc1c[nH]cn1)C(=O)N[C@@H](CC(N)=O)C(=O)N[C@H](C(=O)N[C@H](C(=O)N[C@@H](CCC(N)=O)C(=O)O)[C@@H](C)O)[C@@H](C)CC)C(C)C)[C@@H](C)CC [GIP 1–42, reference compound]

Compound: CCCCCCCCCCCCCCCC(=O)NCCCC[C@H](NC(=O)[C@H](Cc1c[nH]c2ccccc12)NC(=O)[C@H](CC(=O)O)NC(=O)[C@H](CC(N)=O)NC(=O)[C@H](CCCCN)NC(=O)[C@H](CCCCN)NC(=O)CNC(=O)[C@H](CCCCN)NC(=O)[C@H](CCC(N)=O)NC(=O)[C@H](C)NC(=O)[C@H](CC(C)C)NC(=O)[C@H](CC(C)C)NC(=O)[C@H](Cc1c[nH]c2ccccc12)NC(=O)[C@H](CC(N)=O)NC(=O)[C@@H](NC(=O)[C@H](Cc1ccccc1)NC(=O)[C@H](CC(=O)O)NC(=O)[C@H](CCC(N)=O)NC(=O)[C@H](CCC(N)=O)NC(=O)[C@H](Cc1c[nH]cn1)NC(=O)[C@@H](NC(=O)[C@H](CCCCN)NC(=O)[C@H](CC(=O)O)NC(=O)[C@H](CCSC)NC(=O)[C@H](C)NC(=O)[C@@H](NC(=O)[C@H](CO)NC(=O)[C@H](Cc1ccc(O)cc1)NC(=O)[C@H](CC(=O)O)NC(=O)[C@H](CO)NC(=O)[C@@H](NC(=O)[C@H](Cc1ccccc1)NC(=O)[C@@H](NC(=O)CNC(=O)[C@H](CCC(=O)O)NC(=O)[C@H](C)NC(=O)[C@H](Cc1ccc(O)cc1)NC(C)=O)[C@@H](C)O)[C@@H](C)CC)[C@@H](C)CC)[C@@H](C)CC)C(C)C)C(=O)N[C@@H](Cc1c[nH]cn1)C(=O)N[C@@H](CC(N)=O)C(=O)N[C@H](C(=O)N[C@H](C(=O)N[C@@H](CCC(N)=O)C(=O)O)[C@@H](C)O)[C@@H](C)CC [N-AcGIP(LysPAL^37)]
remaining at 2 h, 2 mmol/l (DPP IV; 2 h): 100%
remaining at 8 h, 2 mmol/l (DPP IV; 8 h): 100%
remaining at 24 h, 2 mmol/l (DPP IV; 24 h): 100%

Compound: YAPGTFISDYSIAMDKIHQQDFVNWLLAQKGKKNDWKHNITQ [(Pro^3)GIP]
HbA1c ([2]; 25 nmol/kg/day s.c., 11 days): significant decreases
islet hypertrophy ([2]; 25 nmol/kg/day s.c., 11 days): partial correction
pancreatic insulin stores ([2]; 25 nmol/kg/day s.c., 11 days): significant decreases
plasma glucose concentration [2, 4]: decreases
plasma insulin concentration [2, 4]: decreases
persistence of beneficial effects after cessation ([2]; 9 days after cessation of treatment): reversed 9 days after cessation of treatment
food intake ([2]; 11 days): without any change
decrease in body weight ([2]; 11 days, did not achieve significance): ~7%
circulating insulin during glucose tolerance test ([2]; after 11 days treatment): without change
glucose tolerance ([2]; after 11 days treatment, i.p. glucose 18 mmol/kg): substantially improved
insulin sensitivity ([2]; after 11 days, exogenous insulin 50 U/kg i.p.): significant improvement of insulin sensitivity
inhibition of GIP-stimulated insulin secretion (BRIN-BD11 cells): inhibited in dose-dependent fashion
